Assay results from patent US20080139545A1, “FORMULATION TO TREAT EAR INFECTION” (priority 2006, published 2008).
“Also recorded” adds a separate entry of the source. Where two headings read alike, the source gives them in different places.

What was measured:
[1] = conventional treatments of the same patients before NAC (case histories); format: in vivo, human; details: for response of effusion, tube plugging and otorrhea to conventional treatment: patient one (Example 4), 2002-2005, topical or oral
[2] = as above; format: in vivo, human
Description: They developed vertigo and bilateral otalgia in 1997, and presented to our practice. Given their prior history, they underwent an extensive workup from the outset. […] They underwent right-sided T tube placement for chronic Eustachian tube dysfunction in October 1997, with marked improvement of their pressure and fullness. However, they developed intermittent otorrhea, for which they received topical Tobradex. In November, the tube plugged completely, and they underwent tube replacement. Findings were notable for thick mucus filling the middle ear space. […] They underwent a right sided mastoidectomy with tube exchange in December 1997, with intraoperative findings notable for an inflamed mastoid cavity with several areas of cholesterol granuloma, as well as complete aditus blockade.
They continued to have thick, “taupe”-colored otorrhea after surgery. Considering their failure to respond to therapy, the differential was widened. Their evaluations for immunodeficiency and autoimmune pathology were negative. They underwent multiple TT placements and exchanges, as well as a negative culture and a wide laser tympanotomy in June 1998. The tympanotomy afforded them a brief hiatus from drainage from July through August. […] They also required office debridements every week or alternate week until they underwent a revision tympanomastoidectomy in October 1998. Intraoperative findings were notable for a clear mastoid, but a middle ear full of thick mucopurulence and edematous mucosa. The KTP laser was used to widen the tympanotomy and to ablate the middle ear mucosa to the Eustachian tube. Intraoperative cultures returned negative. Their course improved considerably, with only mild intermittent infections through July 1999. However, they were then diagnosed with breast cancer, which was treated with a modified radical mastectomy and adjuvant chemoradiation.
As they were completing their chemotherapy, they redeveloped the same otorrhea, which was treated with continuous, suppressive Floxin drops as well as frequent office debridements. They developed a mastoid abscess in March 2000, for which they underwent a repeat revision mastoidectomy. Preoperative CT imaging raised the concern for osteomyelitis. Intraoperative findings were notable for purulence in the mastoid and subcutaneous tissues, which were debrided widely. Intraoperative cultures returned penicillin-resistant, but otherwise pan-sensitive Staphylococcus aureus. Their otorrhea resumed in April after a brief hiatus. […] They continued to require office debridements on alternate weeks.
They had brief episodes of otorrhea in November 2001, and February and May 2002, which were treated easily with ototopicals.
Their otorrhea restarted in February 2003. They were begun on alternating courses of topical ciprofloxacin and Tobradex, oral azithromycin and metronidazole, as well as office debridements every week or alternating week. […] An infectious disease consultation was obtained, and they were started on high dose Septra per recommendations. […] A followup culture in October was negative.
Given their continued otorrhea, they underwent a revision modified radical tympanomastoidectomy in November 2004, with intraoperative findings notable for a large cholesterol granuloma extending from the mastoid tip to the retrosigmoid region towards the occiput. They had frank purulence in the epi-, pro-, and hypotympanum. The middle ear was packed with Zyvox-soaked Gelfoam. […] After a brief respite, their otorrhea restarted the following month. […] Multiple cultures returned negative except for occasional colonies of Candida albicans.
patient four is a diabetic with a history of frequent ear infections as a child. They developed ear plugging in May 2004, and was treated with oral antibiotics for otitis media. […] However, they developed chronic otorrhea after tube placement, which persisted despite multiple courses of oral and topical antibiotics. The TT was removed in September, after which they developed a chronic serous effusion. […]

[3] = off-label treatment of patients with Ciprodex augmented with 2% NAC (case reports); format: in vivo, human; details: patient two (Example 1), oral, for presumed fungal superinfection
Description: These patients responded uniformly to the compositions of the present invention. All treated ears ceased to drain within 1-2 weeks of adequate treatment. No ototoxicity was documented by either patient report or audiometry.
Given their multiple treatment failures, they were started at this point on Ciprodex augmented with 2% NAC. Verbal informed consent was obtained prior to starting treatment, and they were continued on oral Zyvox. […] They were given a fresh mixture of NAC with Ciprodex, and their otorrhea and middle ear fluid resolved one week later. […] They have been refrigerating the medication between uses, and hand warming the solution before application.
In November 2005, SG underwent a two week course of topical Ciprodex augmented with 2% NAC. Verbal informed consent was obtained prior to starting treatment.
At this point, BT was started on a two week course of topical Ciprodex augmented with 2% NAC. Verbal informed consent was obtained prior to starting treatment.
In November 2005, DL was started on a two week course of topical Ciprodex augmented with 2% NAC. Verbal informed consent was obtained prior to starting treatment. […] The same solution was insufflated into the ear after an aggressive debridement, and they were started on another two week course. The patient traveled abroad for one month, and returned in January 2006. […]

Bacillus species = details: concentrations of 0.003% to 0.8%; cited from earlier work
Escherichia coli = details: concentrations of 0.003% to 0.8%; cited from earlier work
[4] = high first pass metabolism through the liver; cited from earlier work
[5] = system: cochlear outer hair cell (OHC); details: multiple studies; cited from earlier work
Haemophilus influenzae = details: concentrations of 0.003% to 0.8%; cited from earlier work
[6] = applied topically to children at a concentration of 2%; cited from earlier work
[7] = topical NAC, rat model of otitis media; cited from earlier work
[8] = administered via transtympanic iontopheresis; cited from earlier work
[9] = system: cochlear outer hair cell (OHC); details: co-administration with NAC at 0.017%; cited from earlier work
Moraxella catarrhalis = details: concentrations of 0.003% to 0.8%; cited from earlier work
[10] = system: Staphylococcus epidermidis; details: concentrations of 0.003% to 0.8%; cited from earlier work
Streptococcus pneumoniae = details: concentrations of 0.003% to 0.8%; cited from earlier work
[11] = topical NAC, rabbit model of otitis media; cited from earlier work
Klebsiella pneumoniae = details: concentrations of 0.003% to 0.8%; cited from earlier work
[12] = NAC at a concentration of 0.1%; cited from earlier work
polymicrobial cultures = details: concentrations of 0.003% to 0.8%; cited from earlier work
Pseudomonas cultures = details: cited from earlier work
[13] = patient two (Example 1), 1997-2005, topical or oral as stated

With CC1COc2c(N3CCN(C)CC3)c(F)cc3c(=O)c(C(=O)O)cn1c23 (racemic) [Floxin, (±)-9-fluoro-2,3-dihydro-3-methyl-10-(4-methyl-1-piperazinyl)-7-oxo-7H-pyrido[1,3,3-de]-1,4-benzoxazine-6-carboxylic acid] the “response of effusion, tube plugging and otorrhea to conventional treatment” value (shortened to “response of effusion”) [1] was “continued essentially unchanged”.
For CC[C@H]1OC(=O)[C@H](C)[C@@H](O[C@H]2C[C@@](C)(OC)[C@@H](O)[C@H](C)O2)[C@H](C)[C@@H](O[C@@H]2O[C@H](C)C[C@H](N(C)C)[C@H]2O)[C@](C)(OC)C[C@@H](C)C(=O)[C@H](C)[C@@H](O)[C@]1(C)O [Biaxin, 6-O-methylerythromycin], the “response of otorrhea to conventional treatment” value [2, 13] was “failed to respond”.
In the case of Cc1ncc([N+](=O)[O-])n1CCO [Flagyl, 2-Methyl-5-nitro-imidazole-1-ethanol], the “response of otorrhea to conventional treatment” value ([2]; patient four (Example 2), 2004-2005, topical or oral as stated) is reported as “otorrhea persisted” and the “response of otorrhea to conventional treatment” value [2, 13] is reported as “symptoms continued essentially unabated”.
In the case of CN(C/C=C/C#CC(C)(C)C)Cc1cccc2ccccc12.Cl [Lamisil, (E)-N-(6,6-dimethyl-2-hepten-4-ynyl)-N-methyl-1-naphthalenemethanamine hydrochloride], the tolerability [3] is reported as “could tolerate only three days of treatment secondary to gastrointestinal side effects”.
In the case of CC(=O)N[C@@H](CS)C(=O)O [NAC, N-acetylcysteine], the “adherence of Bacillus species to stainless steel” value (Bacillus species) is listed as “reduces the adherence”, the “adherence of Escherichia coli to polystyrene” value (Escherichia coli) is listed as “reduces the adherence” and the oral bioavailability [4] is listed as 5-10%. For the same molecule, the “protection against oxidative OHC damage from cisplatin or aminoglycosides” value [5] was “protect against oxidative OHC damage”, the “adherence of Haemophilus influenzae to mucus and human oropharyngeal cells” value (Haemophilus influenzae) was “reduces the adherence” and the “TT reinsertion, recurrence of otitis media, need for physician visits” value [6] was “decreases”. The “tympanostomy tube (TT) longevity” value [6] was “increases”, the “fibroblast proliferation, collagen synthesis, and inflammatory markers” value [7] was “Marked reductions” and the tympanic membrane scarring [7] was “effectively reduced this scarring”. The “clearance of thick middle ear effusions” value [8] was “may speed the clearance”, the “hydrogen peroxide-mediated damage to OHCs” value [9] was “completely prevented” and the “adherence of Moraxella catarrhalis to human pharyngeal cells” value (Moraxella catarrhalis) was “reduces the adherence”. The “adherence of Staphylococcus epidermidis to polystyrene” value [10] was “reduces the adherence”, the “adherence of Streptococcus pneumoniae to human oropharyngeal cells” value (Streptococcus pneumoniae) was “reduces the adherence” and the “fibroblast proliferation, collagen synthesis, and inflammatory markers” value [11] was “Marked reductions”. For the same molecule, the tympanic membrane scarring [11] was “effectively reduced this scarring”, the “adherence of Klebsiella pneumoniae to polystyrene” value (Klebsiella pneumoniae) was “reduces the adherence” and the viscosity reductions [12] was 21-39%. For the same molecule, the “adherence of polymicrobial cultures to stainless steel and tracheoesophageal puncture prostheses” value (polymicrobial cultures) was “reduces the adherence”, the “killing of Pseudomonas cultures” value (Pseudomonas cultures; NAC administered alone, concentration of only 0.002%) was 95% and the “decrease of the efficacy of aminoglycoside antibiotics” value (Pseudomonas cultures; combination with aminoglycoside antibiotics) was 2-16 fold. The “interaction with ticarcillin and carbenicillin” value (Pseudomonas cultures; combination with ticarcillin and carbenicillin) was “strong synergy”.
For CN[C@@H](C)[C@@H](O)c1ccccc1 [Sudafed], the “response of effusion” value [1] was “effusion and plugging continued”.
For CC[C@H]1OC(=O)[C@H](C)[C@@H](O[C@H]2C[C@@](C)(OC)[C@@H](O)[C@H](C)O2)[C@H](C)[C@@H](O[C@@H]2O[C@H](C)C[C@H](N(C)C)[C@H]2O)[C@](C)(O)C[C@@H](C)CN(C)[C@H](C)[C@@H](O)[C@]1(C)O [azithromycin], the “response of otorrhea to conventional treatment” value [2, 13] was “symptoms continued essentially unabated” and the “response of effusion” value [1] was “effusion and plugging continued; also recorded: continued essentially unchanged”.
In the case of O=C(N[C@H](CO)[C@H](O)c1ccc([N+](=O)[O-])cc1)C(Cl)Cl [chloramphenicol], the “response of otorrhea to conventional treatment” value [2, 13] is reported as “failed to respond”.
In the case of O=C(O)c1cn(C2CC2)c2cc(N3CCNCC3)c(F)cc2c1=O [ciprofloxacin drops, 1-cyclopropyl-6-fluoro-1,4-dihydro-4-oxo-7-(1-piperazinyl)-3-quinolinecarboxylic acid], the “response of otorrhea to conventional treatment” value [2, 13] is reported as “continued to drain through December; also recorded: failed to respond; also recorded: otorrhea resolved”, the “response of otorrhea to conventional treatment” value ([2]; patient two (Example 1), 1997-2005, topical or oral as stated, listed as ciprofloxacin) is reported as “symptoms continued essentially unabated” and the “response of effusion” value [1] is reported as “effusion and plugging continued; also recorded: tube plugging and otorrhea continued”. The “response of otorrhea/effusion to conventional treatment” value ([1]; patient three (Example 3), 2005, topical or oral as stated) was “developed recurrent otorrhea on the right side”.
With CN[C@H](CC(C)C)C(=O)N[C@H]1C(=O)N[C@@H](CC(N)=O)C(=O)N[C@H]2C(=O)N[C@H]3C(=O)N[C@H](C(=O)N[C@H](C(=O)O)c4cc(O)cc(O)c4-c4cc3ccc4O)[C@H](O)c3ccc(c(Cl)c3)Oc3cc2cc(c3O[C@@H]2O[C@H](CO)[C@@H](O)[C@H](O)[C@H]2O[C@H]2C[C@](C)(N)[C@H](O)[C@H](C)O2)Oc2ccc(cc2Cl)[C@H]1O [vancomycin] the “response of otorrhea to conventional treatment” value [2, 13] was “some improvement”.
